Reference: article PMC5852967, “Specific features of L-histidine production by Escherichia coli concerned with feedback control of AICAR formation and inorganic phosphate/metal transport” (Microbial Cell Factories, 2018)

Experiments:
Format in all cases: biochemical
[1] = target: T1, HisG^E271K feedback-resistant ATP-phosphoribosyltransferase (Escherichia coli, UniProt P60757, E271K); assay: PR-ATP formation at […] nm with purified enzyme; % inhibition at […]; conditions: read-out: Inhibition, % / AICAR / 1 mM
T1 construct: His6-tagged HisG^E271K (HT-HisG^E271K)

[2] = target: T2, ATP-phosphoribosyltransferase (ATP-PRT, HisG) (Escherichia coli, UniProt P60757); assay: PR-ATP formation at […] nm with purified enzyme; Lineweaver–Burk plot
T2 construct: N-terminal His6-Tag HisG (HT-HisG)
T2 sequence (P60757 1-299): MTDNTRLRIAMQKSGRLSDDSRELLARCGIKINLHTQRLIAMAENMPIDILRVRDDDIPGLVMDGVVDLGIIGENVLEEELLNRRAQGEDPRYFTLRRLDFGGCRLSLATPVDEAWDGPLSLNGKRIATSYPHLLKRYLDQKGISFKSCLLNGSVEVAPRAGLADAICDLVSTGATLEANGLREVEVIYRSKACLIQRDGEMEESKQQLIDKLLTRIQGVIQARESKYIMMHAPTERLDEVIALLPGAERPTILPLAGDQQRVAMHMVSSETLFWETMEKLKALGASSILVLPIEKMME

[3] = target: T2, ATP-phosphoribosyltransferase (ATP-PRT, HisG); assay: PR-ATP formation at […] nm from ATP and PRPP with purified enzyme

**Q.** How did the inhibition at 1000 µM [1] turn out when `NC(=O)c1ncn([C@@H]2O[C@H](COP(=O)(O)O)[C@@H](O)[C@H]2O)c1N` [AICAR, 5-aminoimidazole-4-carboxamide-1-beta-D-ribofuranosyl 5′-monophosphate] was run?
**A.** 52%

**Q.** And the Ki [2]?
**A.** 650 µM

**Q.** For `Nc1ncnc2c1ncn2[C@@H]1O[C@H](COP(=O)(O)O)[C@@H](O)[C@H]1O` [AMP], which Ki [2] is on record?
**A.** 2150 µM

**Q.** How did the “PR-ATP formation at 290 nm from ATP and PRPP with purified enzyme” value [3] turn out when `Nc1ncnc2c1ncn2[C@@H]1O[C@H](COP(=O)(O)OP(=O)(O)OP(=O)(O)O)[C@@H](O)[C@H]1O` [ATP] was run?
**A.** Both tested substances compete with ATP in HisG-catalyzed reactions
